Among the data in ChEMBL document CHEMBL1134129, “Novel and potent tacrine-related hetero- and homobivalent ligands for acetylcholinesterase and butyrylcholinesterase” (Bioorg Med Chem Lett, 2001) are Ki values, retold here.

The structures appear in SMILES notation.

One assay concerns the target T1, Acetylcholinesterase (Bos taurus, UniProt P23795).
T1 sequence (P23795 whole entry): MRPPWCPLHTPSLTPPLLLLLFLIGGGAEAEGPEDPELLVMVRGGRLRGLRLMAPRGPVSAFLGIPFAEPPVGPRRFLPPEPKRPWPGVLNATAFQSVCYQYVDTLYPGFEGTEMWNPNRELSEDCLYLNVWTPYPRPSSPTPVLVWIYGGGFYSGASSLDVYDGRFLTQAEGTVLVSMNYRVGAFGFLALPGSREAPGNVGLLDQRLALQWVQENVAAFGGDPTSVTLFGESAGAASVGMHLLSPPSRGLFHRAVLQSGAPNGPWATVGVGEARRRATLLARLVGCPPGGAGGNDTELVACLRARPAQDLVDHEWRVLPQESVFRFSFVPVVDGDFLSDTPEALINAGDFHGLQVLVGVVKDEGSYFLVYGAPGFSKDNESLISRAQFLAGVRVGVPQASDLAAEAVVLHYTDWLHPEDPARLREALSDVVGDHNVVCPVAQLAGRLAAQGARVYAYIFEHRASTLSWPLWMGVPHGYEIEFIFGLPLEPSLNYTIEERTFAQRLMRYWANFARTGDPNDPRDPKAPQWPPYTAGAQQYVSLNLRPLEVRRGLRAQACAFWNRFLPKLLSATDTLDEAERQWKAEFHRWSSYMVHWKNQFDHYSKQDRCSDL

A further assay concerns the target Butyrylcholinesterase (Equus caballus, UniProt Q9N1N9).

Butyrylcholinesterase, sequence (Q9N1N9 whole entry): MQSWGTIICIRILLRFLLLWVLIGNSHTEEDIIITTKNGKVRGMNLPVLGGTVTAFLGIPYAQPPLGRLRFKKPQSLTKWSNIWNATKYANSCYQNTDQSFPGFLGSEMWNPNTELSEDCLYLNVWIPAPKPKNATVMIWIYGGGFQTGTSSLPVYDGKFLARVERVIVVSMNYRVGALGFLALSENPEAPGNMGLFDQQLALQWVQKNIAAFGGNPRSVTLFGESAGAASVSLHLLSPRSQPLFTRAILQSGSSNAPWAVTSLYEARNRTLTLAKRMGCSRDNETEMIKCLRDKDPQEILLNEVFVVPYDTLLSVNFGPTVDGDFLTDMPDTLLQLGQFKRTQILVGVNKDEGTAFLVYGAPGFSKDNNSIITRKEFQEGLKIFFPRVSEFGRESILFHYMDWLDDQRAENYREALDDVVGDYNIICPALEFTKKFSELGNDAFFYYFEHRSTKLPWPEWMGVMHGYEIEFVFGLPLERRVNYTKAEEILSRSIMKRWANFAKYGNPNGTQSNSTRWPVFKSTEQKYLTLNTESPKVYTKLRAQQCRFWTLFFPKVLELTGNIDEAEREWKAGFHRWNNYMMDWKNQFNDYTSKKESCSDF
Description for Acetylcholinesterase: Inhibition of acetylcholinesterase (AChE) of fetal bovine serum (FBS)
Description for Butyrylcholinesterase: Inhibition of equine (Eq) Butyrylcholinesterase

With `Clc1cc(Cl)c2nc3c(c(SCCCCCCCNc4c5c(nc6ccccc46)CCCC5)c2c1)CCCC3`, the inhibition constant (Ki) – broadly, the dissociation constant of the complex between target and ligand, obtained from inhibition or displacement – at Acetylcholinesterase was 0.29 µM; on Butyrylcholinesterase, 0.08 µM. For the compound `c1ccc2c(NCCCCCCCNc3c4c(nc5ccccc35)CCCC4)c3c(nc2c1)CCCC3`, the affinity at Butyrylcholinesterase, expressed as Ki, was 0.002 µM. Consider `Nc1c2c(nc3cc(Cl)cc(Cl)c13)CCCC2`, for which the inhibition constant Ki on Acetylcholinesterase was 0.001 µM; at Butyrylcholinesterase it was 0.05 µM. In the case of `Clc1cc(Cl)c2c(NCCCCCCCSc3c4c(nc5ccccc35)CCCC4)c3c(nc2c1)CCCC3`, the Ki at Butyrylcholinesterase was determined as 0.25 µM. This lies in the sub-micromolar range. Turning to `Clc1cc(Cl)c2c(SCCCCCCNc3c4c(nc5ccccc35)CCCC4)c3c(nc2c1)CCCC3`, the Ki on Acetylcholinesterase turned out to be 0.12 µM; at Butyrylcholinesterase it was 0.045 µM. In the same order, the values of `c1ccc2c(NCCCCCCCSc3c4c(nc5ccccc35)CCCC4)c3c(nc2c1)CCCC3` are 0.34 µM and 0.035 µM. On to `c1ccc2c(NCCCCSc3c4c(nc5ccccc35)CCCC4)c3c(nc2c1)CCCC3`, for which the Ki at Acetylcholinesterase was 0.65 µM; at Butyrylcholinesterase it was 0.04 µM.

With `c1ccc2c(SCCCCCCCSc3c4c(nc5ccccc35)CCCC4)c3c(nc2c1)CCCC3`, the Ki at Acetylcholinesterase is greater than 10 µM; on Butyrylcholinesterase, 0.38 µM.
